# Measurements taken from US20080004200A1, “Enzyme stabilization” (priority 2006, published 2008).
# Where a SMILES comes first, the peptide text is derived from it. The star is where a group is joined. Moc = COC(=O)*
# Test system: Gram negative bacteria
# Assay: Gram negative cocktail challenge test in inoculated standard liquid laundry detergent
# Format: cell-based
# Conditions: inhibitor 0.004% by weight in standard liquid laundry detergent; for Count (log viable cells): stored at 35° C.
# Description: To determine if a compound is capable of at least inhibiting the growth of at least one Gram negative bacteria in the liquid detergent the following test is performed.
# A mixture of Gram negative bacteria, also known as a Gram negative cocktail or cocktail, is prepared. The Gram negative cocktail comprises a mixture of Pseudomonas aeruginosa ATCC 9027, Pseudomonas fluorescens ATCC 13525, Burkholderia (Pseudomonas) cepacia ATCC 25416, Klebsiella oxytoca ATCC 13182, Escherichia coli ATCC 8739, Citrobacter freundii ATCC 8090 and Serratia liquefaciens ATCC 27592. The Gram negative bacterial cocktail is prepared by growing each organism individually on plates containing a growth medium and picking isolated colonies for preparation of the Gram negative cocktail. The growth medium is TSA (tryptic soy agar, available from Becton Dickinson). TSA contains per liter water: 15 g pancreatic digest of casein, 5 g enzymatic digest of soy bean meal, 5 g sodium chloride, and 15 g agar with the pH adjusted to 7.3±0.2 using hydrochloric acid, HCL (J. T. Baker).
# The individually selected colonies are added to sterilized saline and adjusted to a McFarland standard of #2 (Available from bioMerieux, Inc.) to prepare a standardized saline suspension for the organism. This is repeated for each organism individually, thereby by preparing a standardized saline suspension for each organism. An equal volume (1 ml) of each standardized saline suspension of the following cocktail members are mixed together: Pseudomonas aeruginosa ATCC 9027, Pseudomonas fluorescens ATCC 13525, Burkholderia (Pseudomonas) cepacia ATCC 25416, Klebsiella oxytoca ATCC 13182, Escherichia coli ATCC 8739, Citrobacter freundii ATCC 8090 and Serratia liquefaciens ATCC 27592.
# An inoculated liquid laundry detergent is prepared by the addition to 49.5 ml of the standard liquid laundry detergent, described in Table A below, of 0.5 ml of the Gram negative bacterial cocktail as prepared above. This standard liquid laundry detergent also contains from about 0.00001% to about 5%, by weight of the composition, of one or more of the tripeptide enzyme inhibitors described herein.
# As the cocktail contains approximately 10^7 to 10^8 cfu/ml (colony forming units/ml); the resulting inoculum level in the inoculated liquid laundry detergent is 10^5 to 10^6 cfu/ml. The inoculated liquid laundry detergent is stored at 35° C., a relative humidity of about 60% and at standard pressure, i.e. 1 atmosphere. Samples of Iml are removed from the inoculated liquid laundry detergent at the following times, 1 day, 2 days, 7 days, 14 days, 21 days and 28 days. These 1 ml samples, are immediately neutralized by addition to a neutralizer, namely polyvalent universal neutralizer (PVUN) which contains (per liter distilled water): 30 g Polysorbate 80 (Available under the brand Tween 80, from VWR International), 5 g Sodium thiosulfate, Ig L-Histidine, Ig Peptone, 8.5 g Sodium chloride, 14.3 g Lecithin with the pH adjusted to 7.0±0.2 with HCL.
# Each neutralized sample is then subjected to a serial dilution, to the 10^−5 dilution to allow full enumeration of the surviving microbial population. For example, 1 ml of sample is added to 9 ml of PVUN, resulting in a 1:10 dilution, or 10^−1 dilution. A 1 ml sample of this 1:10 dilution is then added to another 9 ml PVUN, resulting in a 1:100 dilution, or 10^−2 dilution, and so on. Serial dilutions are carried out to 10^−5. 1.0 ml of the various dilutions (10^−1 or 10^−5) are then either spread or pour plated on TSA (tryptic soy agar, Becton Dickinson) and are then incubated for 72 hours at 35° C.±2° C.
# After incubation, the plates are counted and recorded as cfu/ml survival vs. time (days 1, 2, 7, 14, 21, and 28 days). Results are recorded as log viable cells on specified sampling days. […]
structure (smiles),measurement,setting,value
COC(=O)N[C@H](C(=O)N[C@@H](C)C(=O)N[C@H](C=O)CC(C)C)C(C)C (Moc-Val-Ala-Leu-aldehyde),Count (log viable cells),"Day 1, inoculum 10^5 to 10^6 cfu/ml",4.7 log viable cells
same,Count (log viable cells),Day 2,4.0 log viable cells
same,Count (log viable cells),Day 7,<0.1 log viable cells
same,Count (log viable cells),Day 14,<0.1 log viable cells
same,Count (log viable cells),Day 21,<0.1 log viable cells
same,Count (log viable cells),Day 28,<0.1 log viable cells
same,Growth of Gram negative bacteria in liquid laundry detergents,,prevents the growth of Gram negative bacteria
